Laboratory results as given in PubChem BioAssay (NCI).
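Cells were grown in 96-well plates and exposed to each compound for 48 hours at five concentrations; endpoints were interpolated linearly between bracketing concentrations, or set to the highest concentration if not reached. Abbreviation: GI50, concentration required for 50% inhibition of growth. TGI marks complete inhibition of growth.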

Assays:
Assay in all cases: NCI anticancer screen, dose series, 48 h
[1] = test system: UACC-257 melanoma
[2] = test system: A498 renal
[3] = test system: CCRF-CEM leukemia
[4] = test system: SF-295 CNS
[5] = test system: HCC-2998 colon
[6] = test system: DU-145 prostate
[7] = test system: HCT-15 colon
[8] = test system: CAKI-1 renal
[9] = test system: MDA-MB-468 breast
[10] = test system: UO-31 renal
[11] = test system: HOP-62 NSCLC
[12] = test system: KM12 colon
[13] = test system: OVCAR-5 ovarian
[14] = test system: NCI-H226 lung
[15] = test system: SK-MEL-5 melanoma
[16] = test system: NCI/ADR-RES ovarian
[17] = test system: RPMI-8226 leukemia
[18] = test system: SR leukemia
[19] = test system: IGROV1 ovarian
[20] = test system: SK-MEL-2 melanoma
[21] = test system: MOLT-4 leukemia
[22] = test system: SW-620 colon
[23] = test system: OVCAR-8 ovarian
[24] = test system: UACC-62 melanoma
[25] = test system: U251 CNS
[26] = test system: A549 NSCLC
[27] = test system: OVCAR-3 ovarian
[28] = test system: SN12C renal
[29] = test system: SK-MEL-28 melanoma
[30] = test system: HS 578T breast
[31] = test system: MDA-MB-435
[32] = test system: COLO 205 colon
[33] = test system: NCI-H460 lung
[34] = test system: HCT-116 colon
[35] = test system: RXF 393 renal
[36] = test system: SF-539 CNS
[37] = test system: SNB-19 CNS
[38] = test system: K-562 leukemia
[39] = test system: MCF7 breast
[40] = test system: EKVX NSCLC
[41] = test system: NCI-H23 lung
[42] = test system: T-47D breast
[43] = test system: TK-10 renal
[44] = test system: M14 melanoma
[45] = test system: HL-60(TB) leukemia
[46] = test system: BT-549 breast
[47] = test system: HOP-92 NSCLC
[48] = test system: NCI-H522 lung
[49] = test system: PC-3 prostate
[50] = test system: HT29 colon
[51] = test system: LOX IMVI melanoma
[52] = test system: SF-268 CNS
[53] = test system: MALME-3M melanoma
[54] = test system: SK-OV-3 ovarian
[55] = test system: MDA-MB-231 breast

Molecule `N/C(=N\c1nc2ccc([N+](=O)[O-])cc2s1)NC(=O)Nc1ccccc1Cl` has a GI50 [1] of 45.5 µM, a TGI [1] of over 100 µM and a GI50 [2] of 4.53 µM. It also gave a TGI [2] of 38 µM, a GI50 [3] of 46.9 µM and a TGI [3] of over 100 µM. It also gave a GI50 [4] of 17.6 µM, a TGI [4] of 90.9 µM and a GI50 [5] of 61.4 µM. For the same molecule, the TGI [5] was over 100 µM, the GI50 [6] was 5.63 µM and the TGI [6] was over 100 µM. For the same molecule, the GI50 [7] was 6.92 µM, the TGI [7] was over 100 µM and the GI50 [8] was 3.58 µM. For the same molecule, the TGI [8] was over 100 µM, the GI50 [9] was 3.16 µM and the TGI [9] was 13.1 µM. The GI50 [10] was 3.19 µM, the TGI [10] was over 100 µM and the GI50 [11] was 10.8 µM. The TGI [11] was 94.4 µM, the GI50 [12] was 6.95 µM and the TGI [12] was over 100 µM. It also gave a GI50 [13] of 4.12 µM, a TGI [13] of over 100 µM and a GI50 [14] of 5 µM. For the same molecule, the TGI [14] was over 100 µM, the GI50 [15] was 11.4 µM and the TGI [15] was 38.6 µM. The GI50 [16] was 3.97 µM, the TGI [16] was over 100 µM and the GI50 [17] was 72.2 µM. For the same molecule, the TGI [17] was over 100 µM, the GI50 [18] was 2.17 µM and the TGI [18] was over 100 µM. The GI50 [19] was 9.77 µM, the TGI [19] was over 100 µM and the GI50 [20] was 23 µM. For the same molecule, the TGI [20] was 50.2 µM, the GI50 [21] was 40 µM and the TGI [21] was over 100 µM. For the same molecule, the GI50 [22] was 5.11 µM, the TGI [22] was over 100 µM and the GI50 [23] was 3.9 µM. For the same molecule, the TGI [23] was over 100 µM, the GI50 [24] was 14.9 µM and the TGI [24] was 66.6 µM. For the same molecule, the GI50 [25] was 2.3 µM, the TGI [25] was 6.18 µM and the GI50 [26] was 3.09 µM. The TGI [26] was over 100 µM, the GI50 [27] was 2.41 µM and the TGI [27] was 6.16 µM. For the same molecule, the GI50 [28] was 4.2 µM, the TGI [28] was over 100 µM and the GI50 [29] was 26.2 µM. The TGI [29] was over 100 µM, the GI50 [30] was 12.1 µM and the TGI [30] was over 100 µM. It also gave a GI50 [31] of 2.26 µM, a TGI [31] of 7.77 µM and a GI50 [32] of 6.91 µM. The TGI [32] was 76.2 µM, the GI50 [33] was 3.1 µM and the TGI [33] was 8.71 µM. It also gave a GI50 [34] of 1.69 µM, a TGI [34] of 3.46 µM and a GI50 [35] of 3.79 µM. The TGI [35] was over 100 µM, the GI50 [36] was 4.55 µM and the TGI [36] was 28.2 µM. The GI50 [37] was 10.2 µM, the TGI [37] was over 100 µM and the GI50 [38] was 3.56 µM. The TGI [38] was over 100 µM, the GI50 [39] was 7.69 µM and the TGI [39] was over 100 µM. It also gave a GI50 [40] of 12.4 µM, a TGI [40] of over 100 µM and a GI50 [41] of 4.55 µM. It also gave a TGI [41] of over 100 µM, a GI50 [42] of 2.71 µM and a TGI [42] of over 100 µM. For the same molecule, the GI50 [43] was 3.6 µM, the TGI [43] was over 100 µM and the GI50 [44] was 13.1 µM. The TGI [44] was 38.5 µM, the GI50 [45] was 22.4 µM and the TGI [45] was over 100 µM. The GI50 [46] was 4.07 µM, the TGI [46] was over 100 µM and the GI50 [47] was 2.97 µM. It also gave a TGI [47] of 17.5 µM, a GI50 [48] of 3.46 µM and a TGI [48] of 41.5 µM. For the same molecule, the GI50 [49] was 28.9 µM, the TGI [49] was over 100 µM and the GI50 [50] was 13.9 µM. For the same molecule, the TGI [50] was over 100 µM, the GI50 [51] was 9.3 µM and the TGI [51] was over 100 µM. The GI50 [52] was 15.1 µM, the TGI [52] was over 100 µM and the GI50 [53] was 4.56 µM. The TGI [53] was over 100 µM, the GI50 [54] was 6.63 µM and the TGI [54] was 28.2 µM. For the same molecule, the GI50 [55] was 2.45 µM and the TGI [55] was 6.88 µM.
